Holding throughout (type): biochemical
One test has as its target CDK1/CCNB1 (Homo sapiens, UniProt P06493). As to the kind of experiment: CDK1 homogeneous time-resolved fluorescence (HTRF) kinase assay. The following applies: CDK1/CCNB. The essentials:
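0.5 nM CDK1/CCNB1 was preincubated 20 min at 23 °C with compound in HEPES pH-unspecified buffer (MgCl2, EGTA, DTT, Tween 20), then reacted 60 min with 1 mM ATP and 50 nM ULight-4E-BP1 (Thr37/46) peptide. EDTA-stopped reactions were detected with 2 nM Eu-anti-phospho antibody; IC50 from 11-point half-log titrations.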

The target of another test is CDK4/CCND3 (Homo sapiens, UniProt P11802). As to the kind of experiment: CDK4 homogeneous time-resolved fluorescence (HTRF) kinase assay. The following applies: CDK4/CCND. The essentials: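 CDK4/CCND3 at 1.5 nM was preincubated with compound for 20 min at 23 °C, then reacted for 60 min with 1 mM ATP and 50 nM ULight-4E-BP1 (Thr37/46) peptide. The reaction was stopped with EDTA, and phosphorylation was read by HTRF with a Eu-anti-phospho antibody. IC50 values came from 11-point half-log titrations, typically from 10 μM.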

The target of a further test is CDK6/CCND1 (Homo sapiens, UniProt Q00534). As to the kind of experiment: CDK6 homogeneous time-resolved fluorescence (HTRF) kinase assay. The note with it: CDK6/CCND. Summed up: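 Enzyme pre-incubated 20 min at 23 °C with compound, then reacted 60 min at 23 °C with 1 mM ATP and 50 nM ULight-4E-BP1 (Thr37/46) peptide; 1 nM enzyme, 1% DMSO. EDTA-stopped, Eu-anti-phospho antibody TR-FRET read (665 nm or 665/615 ratio); 11-point half-log titration from 10 μM gave IC50.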

The target in a further test is CDK2/CCNE1 (Homo sapiens, UniProt P24941). The test can be described thus: CDK2 homogeneous time-resolved fluorescence (HTRF) kinase assay. The note with it: CDK2/CCNE. The essentials: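 CDK2/CCNE1 (3 nM) preincubated 20 min at 23 °C with compound, then reacted 60 min at 23 °C with 1 mM ATP and 50 nM ULight-4E-BP1 (Thr37/46) peptide. Stopped with EDTA, phospho-peptide detected by Eu-anti-phospho antibody (665 nm or 665/615 ratio). IC50 from 11-point half-log titrations typically starting at 10 μM.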

[1] abbreviates: 25-250 nM marked x, read-out: CDK1/CCNB IC50 25-250 nM.
Where [2] appears, read: 25-250 nM marked x, read-out: CDK4/CCND IC50 25-250 nM.
Where [3] appears, read: 25-250 nM marked x, read-out: CDK6/CCND IC50 25-250 nM.
[4] abbreviates: <25 nM, read-out: CDK2/CCNE IC50 <25 nM.
Where [5] appears, read: >250 nM marked x, read-out: CDK1/CCNB IC50 >250 nM.
[6] abbreviates: <25 nM, read-out: CDK4/CCND IC50 <25 nM.
Setting [7] is: <25 nM, read-out: CDK6/CCND IC50 <25 nM.
The mark [8] stands for this setting: 25-250 nM marked x, read-out: CDK2/CCNE IC50 25-250 nM.

Each structure is given as a SMILES string. Where two headings read alike, the source gives them in different places.

Sequence of CDK6/CCND1 (Q00534 whole entry): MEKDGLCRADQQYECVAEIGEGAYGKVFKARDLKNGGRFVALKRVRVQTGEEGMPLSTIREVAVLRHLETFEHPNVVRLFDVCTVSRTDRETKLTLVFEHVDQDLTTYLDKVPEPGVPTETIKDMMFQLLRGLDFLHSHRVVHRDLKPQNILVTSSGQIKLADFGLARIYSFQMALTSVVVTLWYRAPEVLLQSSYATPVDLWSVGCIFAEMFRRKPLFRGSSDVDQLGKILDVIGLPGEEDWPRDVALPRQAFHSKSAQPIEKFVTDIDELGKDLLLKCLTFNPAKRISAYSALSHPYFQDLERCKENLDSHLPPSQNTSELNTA
Sequence of CDK6/CCND1 (P24385 whole entry partner): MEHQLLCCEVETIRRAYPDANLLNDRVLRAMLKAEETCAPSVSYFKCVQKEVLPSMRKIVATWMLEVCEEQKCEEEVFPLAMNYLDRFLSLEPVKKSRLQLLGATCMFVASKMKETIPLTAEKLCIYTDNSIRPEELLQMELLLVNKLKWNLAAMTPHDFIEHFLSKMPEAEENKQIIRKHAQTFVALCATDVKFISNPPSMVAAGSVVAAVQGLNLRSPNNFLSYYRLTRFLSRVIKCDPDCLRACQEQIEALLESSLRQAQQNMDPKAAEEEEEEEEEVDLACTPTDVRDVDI
Sequence of CDK4/CCND3 (P11802 whole entry): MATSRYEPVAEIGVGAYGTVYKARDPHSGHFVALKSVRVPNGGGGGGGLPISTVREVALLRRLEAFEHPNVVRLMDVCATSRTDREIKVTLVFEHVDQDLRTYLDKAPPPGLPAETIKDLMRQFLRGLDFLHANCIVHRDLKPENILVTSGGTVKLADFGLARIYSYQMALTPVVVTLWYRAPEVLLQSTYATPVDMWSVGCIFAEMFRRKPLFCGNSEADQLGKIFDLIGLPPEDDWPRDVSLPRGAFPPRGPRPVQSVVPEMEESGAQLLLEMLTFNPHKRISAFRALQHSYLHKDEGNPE
Sequence of CDK4/CCND3 (P30281 whole entry partner): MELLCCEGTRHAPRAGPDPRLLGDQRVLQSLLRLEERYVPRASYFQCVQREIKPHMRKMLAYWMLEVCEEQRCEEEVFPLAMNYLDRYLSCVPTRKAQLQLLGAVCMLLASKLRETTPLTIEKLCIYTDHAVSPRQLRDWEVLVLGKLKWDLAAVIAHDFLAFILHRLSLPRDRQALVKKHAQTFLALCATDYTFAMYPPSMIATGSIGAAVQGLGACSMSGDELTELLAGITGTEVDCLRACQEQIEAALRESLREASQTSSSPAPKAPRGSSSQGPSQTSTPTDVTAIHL
Sequence of CDK1/CCNB1 (P06493 whole entry): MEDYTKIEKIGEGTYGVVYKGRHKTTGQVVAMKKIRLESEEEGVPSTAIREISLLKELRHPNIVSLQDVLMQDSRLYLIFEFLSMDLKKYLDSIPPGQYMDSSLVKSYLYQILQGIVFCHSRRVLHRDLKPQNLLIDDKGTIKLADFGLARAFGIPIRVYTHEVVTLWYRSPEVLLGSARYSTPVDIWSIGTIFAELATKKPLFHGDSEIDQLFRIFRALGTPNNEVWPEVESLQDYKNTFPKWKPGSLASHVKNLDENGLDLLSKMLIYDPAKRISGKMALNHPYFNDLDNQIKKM
Sequence of CDK1/CCNB1 (P14635 whole entry partner): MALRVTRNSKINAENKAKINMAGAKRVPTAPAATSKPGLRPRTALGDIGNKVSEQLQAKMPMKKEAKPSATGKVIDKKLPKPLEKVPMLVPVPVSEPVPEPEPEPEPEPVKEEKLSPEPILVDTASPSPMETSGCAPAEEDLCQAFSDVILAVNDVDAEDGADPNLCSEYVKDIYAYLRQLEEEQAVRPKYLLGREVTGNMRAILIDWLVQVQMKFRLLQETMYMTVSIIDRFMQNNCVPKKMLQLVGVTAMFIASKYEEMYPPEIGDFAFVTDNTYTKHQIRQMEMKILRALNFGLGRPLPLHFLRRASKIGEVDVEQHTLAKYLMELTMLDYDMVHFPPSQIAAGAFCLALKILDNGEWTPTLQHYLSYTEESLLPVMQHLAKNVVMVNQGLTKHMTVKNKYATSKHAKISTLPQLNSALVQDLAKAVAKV

As to `CS(=O)(=O)N1CCC(Nc2cc3c(N4CC5(CC(O)C5)C4)nccc3cn2)CC1` [Ex 36, 2-(7-((1-(methylsulfonyl)piperidin-4-yl)amino)-2,6-naphthyridin-1-yl)-2-azaspiro[3.3]heptan-6-ol], the IC50 on CDK1/CCNB1 (setting [1]) is 25 to 250 nM; at CDK4/CCND3 (setting [2]) it was 25 to 250 nM; on CDK6/CCND1 (setting [3]), 25 to 250 nM; on CDK2/CCNE1 (setting [4]) it was less than 25 nM.
For the molecule `CS(=O)(=O)N1CCC(Nc2cc3c(N4CCC(C#N)CC4)nccc3cn2)CC1` [Ex 37, 1-(7-((1-(methylsulfonyl)piperidin-4-yl)amino)-2,6-naphthyridin-1-yl)piperidine-4-carbonitrile], the IC50 at CDK1/CCNB1 (setting [5]) was more than 250 nM; on CDK4/CCND3 (setting [2]) it was 25 to 250 nM; at CDK6/CCND1 (setting [3]), 25 to 250 nM; on CDK2/CCNE1 (setting [4]) it was less than 25 nM.
Take `CS(=O)(=O)N1CCC(Nc2cc3c(N4CCC(CO)CC4)nccc3cn2)CC1` [Ex 41, (1-(7-((1-(methylsulfonyl)piperidin-4-yl)amino)-2,6-naphthyridin-1-yl)piperidin-4-yl)methanol]: the IC50 at CDK1/CCNB1 (setting [5]) is more than 250 nM; at CDK4/CCND3 (setting [6]), less than 25 nM; at CDK6/CCND1 (setting [7]), less than 25 nM; on CDK2/CCNE1 (setting [4]) it was less than 25 nM.
As for `CS(=O)(=O)N1CCC(Nc2cc3c(N4CC(C#N)C4)nccc3cn2)CC1` [Ex 43, 1-(7-((1-(methylsulfonyl)piperidin-4-yl)amino)-2,6-naphthyridin-1-yl)azetidine-3-carbonitrile], the IC50 on CDK1/CCNB1 (setting [5]) is more than 250 nM; at CDK4/CCND3 (setting [2]) it was 25 to 250 nM; at CDK6/CCND1 (setting [3]), 25 to 250 nM; at CDK2/CCNE1 (setting [4]), less than 25 nM.
Regarding `CN(c1nccc2cnc(NC3CCN(S(C)(=O)=O)CC3)cc12)C1CCCCC1` [Ex 44, N1-cyclohexyl-N1-methyl-N7-(1-(methylsulfonyl)piperidin-4-yl)-2,6-naphthyridine-1,7-diamine], the IC50 at CDK1/CCNB1 (setting [1]) was 25 to 250 nM; on CDK4/CCND3 (setting [2]), 25 to 250 nM; on CDK6/CCND1 (setting [3]), 25 to 250 nM; at CDK2/CCNE1 (setting [4]), less than 25 nM.
Consider `CN(c1nccc2cnc(NC3CCN(S(C)(=O)=O)CC3)cc12)C1CC1` [Ex 46, N1-cyclopropyl-N1-methyl-N7-(1-(methylsulfonyl)piperidin-4-yl)-2,6-naphthyridine-1,7-diamine], for which the IC50 is more than 250 nM on CDK1/CCNB1 (setting [5]), 25 to 250 nM on CDK4/CCND3 (setting [2]), 25 to 250 nM on CDK6/CCND1 (setting [3]) and 25 to 250 nM at CDK2/CCNE1 (setting [8]).
As to `CS(=O)(=O)N1CCC(Nc2cc3c(N4CCC(F)(F)CC4)nccc3cn2)CC1` [Ex 47, 5-(4,4-difluoropiperidin-1-yl)-N-(1-(methylsulfonyl)piperidin-4-yl)-2,6-naphthyridin-3-amine], the IC50 is 25 to 250 nM on CDK1/CCNB1 (setting [1]), less than 25 nM at CDK4/CCND3 (setting [6]), less than 25 nM on CDK6/CCND1 (setting [7]) and 25 to 250 nM at CDK2/CCNE1 (setting [8]).
On to `CS(=O)(=O)N1CCC(Nc2cc3c(N4CCNC(=O)C4)nccc3cn2)CC1` [Ex 48, 4-(7-((1-(methylsulfonyl)piperidin-4-yl)amino)-2,6-naphthyridin-1-yl)piperazin-2-one], for which the IC50 on CDK1/CCNB1 (setting [5]) is more than 250 nM; on CDK4/CCND3 (setting [6]), less than 25 nM; at CDK6/CCND1 (setting [7]) it was less than 25 nM; at CDK2/CCNE1 (setting [8]), 25 to 250 nM.
For the molecule `CN(C)C1CCN(c2nccc3cnc(NC4CCN(S(C)(=O)=O)CC4)cc23)CC1` [Ex 49, 5-(4-(dimethylamino)piperidin-1-yl)-N-(1-(methylsulfonyl)piperidin-4-yl)-2,6-naphthyridin-3-amine], the IC50 on CDK1/CCNB1 (setting [5]) was more than 250 nM; at CDK4/CCND3 (setting [2]) it was 25 to 250 nM; at CDK6/CCND1 (setting [3]) it was 25 to 250 nM; on CDK2/CCNE1 (setting [8]) it was 25 to 250 nM.
Consider `COC1CCN(c2nccc3cnc(NC4CCN(S(C)(=O)=O)CC4)cc23)CC1` [Ex 50, 5-(4-methoxypiperidin-1-yl)-N-(1-(methylsulfonyl)piperidin-4-yl)-2,6-naphthyridin-3-amine], for which the IC50 at CDK1/CCNB1 (setting [5]) was more than 250 nM; on CDK4/CCND3 (setting [2]), 25 to 250 nM; on CDK6/CCND1 (setting [7]) it was less than 25 nM; at CDK2/CCNE1 (setting [8]), 25 to 250 nM.
Consider `CS(=O)(=O)N1CCC(Nc2cc3c(N4CC(O)C4)nccc3cn2)CC1` [Ex 51, 1-(7-((1-(methylsulfonyl)piperidin-4-yl)amino)-2,6-naphthyridin-1-yl)azetidin-3-ol], for which the IC50 on CDK1/CCNB1 (setting [5]) is more than 250 nM; at CDK4/CCND3 (setting [2]) it was 25 to 250 nM; on CDK6/CCND1 (setting [7]), less than 25 nM; on CDK2/CCNE1 (setting [8]) it was 25 to 250 nM.
Regarding `CS(=O)(=O)N1CCC(Nc2cc3c(-c4ccc5[nH]ccc5c4)nccc3cn2)CC1` [Ex 63, 5-(1H-indol-5-yl)-N-(1-(methylsulfonyl)piperidin-4-yl)-2,6-naphthyridin-3-amine], the IC50 was 25 to 250 nM on CDK1/CCNB1 (setting [1]), less than 25 nM on CDK4/CCND3 (setting [6]), less than 25 nM at CDK6/CCND1 (setting [7]) and less than 25 nM at CDK2/CCNE1 (setting [4]).
For `CS(=O)(=O)N1CCC(Nc2cc3c(-c4cccc(CO)c4)nccc3cn2)CC1` [Ex 64, (3-(7-((1-(methylsulfonyl)piperidin-4-yl)amino)-2,6-naphthyridin-1-yl)phenyl)methanol], the IC50 was 25 to 250 nM on CDK1/CCNB1 (setting [1]), less than 25 nM at CDK4/CCND3 (setting [6]), less than 25 nM at CDK6/CCND1 (setting [7]) and less than 25 nM on CDK2/CCNE1 (setting [4]).
Take `CS(=O)(=O)N1CCC(Nc2cc3c(-c4ccc(O)cc4)nccc3cn2)CC1` [Ex 68, 4-(7-((1-(methylsulfonyl)piperidin-4-yl)amino)-2,6-naphthyridin-1-yl)phenol]: the IC50 at CDK1/CCNB1 (setting [5]) was more than 250 nM; on CDK4/CCND3 (setting [2]), 25 to 250 nM; at CDK6/CCND1 (setting [7]), less than 25 nM; on CDK2/CCNE1 (setting [4]), less than 25 nM.
For the molecule `CS(=O)(=O)N1CCC(Nc2cc3c(-c4cccc(O)c4)nccc3cn2)CC1` [Ex 69, 3-(7-((1-(methylsulfonyl)piperidin-4-yl)amino)-2,6-naphthyridin-1-yl)phenol], the IC50 on CDK1/CCNB1 (setting [1]) was 25 to 250 nM; at CDK4/CCND3 (setting [2]) it was 25 to 250 nM; on CDK6/CCND1 (setting [3]), 25 to 250 nM; at CDK2/CCNE1 (setting [4]), less than 25 nM.
For `CS(=O)(=O)N1CCC(Nc2cc3c(-c4ccc5ocnc5c4)nccc3cn2)CC1` [Ex 70, 5-(benzo[d]oxazol-5-yl)-N-(1-(methylsulfonyl)piperidin-4-yl)-2,6-naphthyridin-3-amine], the IC50 on CDK1/CCNB1 (setting [5]) was more than 250 nM; on CDK4/CCND3 (setting [2]), 25 to 250 nM; on CDK6/CCND1 (setting [7]), less than 25 nM; at CDK2/CCNE1 (setting [4]), less than 25 nM.
`COCc1cccc(-c2nccc3cnc(NC4CCN(S(C)(=O)=O)CC4)cc23)c1` [Ex 71, 5-(3-(methoxymethyl)phenyl)-N-(1-(methylsulfonyl)piperidin-4-yl)-2,6-naphthyridin-3-amine]: the IC50 on CDK1/CCNB1 (setting [1]) is 25 to 250 nM; on CDK4/CCND3 (setting [2]), 25 to 250 nM; at CDK6/CCND1 (setting [3]), 25 to 250 nM; on CDK2/CCNE1 (setting [4]), less than 25 nM.
Consider `CS(=O)(=O)N1CCC(Nc2cc3c(-c4cccc(N)c4)nccc3cn2)CC1` [Ex 72, 5-(3-aminophenyl)-N-(1-(methylsulfonyl)piperidin-4-yl)-2,6-naphthyridin-3-amine], for which the IC50 was more than 250 nM at CDK1/CCNB1 (setting [5]), 25 to 250 nM on CDK4/CCND3 (setting [2]), 25 to 250 nM at CDK6/CCND1 (setting [3]) and less than 25 nM at CDK2/CCNE1 (setting [4]).
Take `CS(=O)(=O)N1CCC(Nc2cc3c(-c4ccc(N)cc4)nccc3cn2)CC1` [Ex 73, 5-(4-aminophenyl)-N-(1-(methylsulfonyl)piperidin-4-yl)-2,6-naphthyridin-3-amine]: the IC50 was 25 to 250 nM at CDK1/CCNB1 (setting [1]), 25 to 250 nM at CDK4/CCND3 (setting [2]), less than 25 nM at CDK6/CCND1 (setting [7]) and less than 25 nM at CDK2/CCNE1 (setting [4]).
Regarding `CS(=O)(=O)N1CCC(Nc2cc3c(-c4ccc(C#N)cc4)nccc3cn2)CC1` [Ex 74, 4-(7-((1-(methylsulfonyl)piperidin-4-yl)amino)-2,6-naphthyridin-1-yl)benzonitrile], the IC50 at CDK1/CCNB1 (setting [5]) was more than 250 nM; on CDK4/CCND3 (setting [2]) it was 25 to 250 nM; on CDK6/CCND1 (setting [3]), 25 to 250 nM; at CDK2/CCNE1 (setting [4]), less than 25 nM.
Consider `CS(=O)(=O)N1CCC(Nc2cc3c(-c4cccc(C#N)c4)nccc3cn2)CC1` [Ex 75, 3-(7-((1-(methylsulfonyl)piperidin-4-yl)amino)-2,6-naphthyridin-1-yl)benzonitrile], for which the IC50 is more than 250 nM at CDK1/CCNB1 (setting [5]), 25 to 250 nM on CDK4/CCND3 (setting [2]), 25 to 250 nM on CDK6/CCND1 (setting [3]) and less than 25 nM at CDK2/CCNE1 (setting [4]).
For the molecule `CS(=O)(=O)N1CCC(Nc2cc3c(-c4ccc5cn[nH]c5c4)nccc3cn2)CC1` [Ex 76, 5-(1H-indazol-6-yl)-N-(1-(methylsulfonyl)piperidin-4-yl)-2,6-naphthyridin-3-amine], the IC50 was 25 to 250 nM at CDK1/CCNB1 (setting [1]), less than 25 nM at CDK4/CCND3 (setting [6]), less than 25 nM on CDK6/CCND1 (setting [7]) and less than 25 nM on CDK2/CCNE1 (setting [4]).

The values are drawn from US20260325533A1, “CDK INHIBITOR COMPOUNDS” (ALEKSIA THERAPEUTICS, INC., priority 2023, published 2026).
